The term viability denotes a read-out of living cells in per cent, often relative to untreated cells.

Molecules are shown by their SMILES.

The results in this text go back to patent US20230293438A1, “INJECTABLE DRUG-RELEASING MICROPOROUS ANNEALED PARTICLE SCAFFOLDS FOR TREATING MYOCARDIAL INFARCTION” (THE REGENTS OF THE UNIVERSITY OF CALIFORNIA, priority 2020, published 2023).

The subject of experiment [1] is Human umbilical vein endothelial cells (HUVECs). Kind of experiment: Endothelial cell proliferation (MTS assay). The class given is cell-based. As to the method: The drug effects on EC proliferation and network formation were evaluated. Human umbilical vein endothelial cells (HUVECs) were seeded on 0.1% gelatin-coated 24-well plates with a density of 5, 000 cells/cm^2 and cultured overnight in DMEM containing 10% FBS and 1% P/S. On the next day, the culture medium was replaced by the fresh medium containing F and R at the determined concentrations and combinations, and the medium was changed every other day. MTS cell proliferation assay was performed on day 1, 3 and 5. In addition, the ECs network formation was examined on growth factor reduced Matrigel according to the manufacturer's instructions (cat# CB-40230C, Thermo Fisher Scientific). Briefly, 24-well plates were coated with Matrigel. ECs were digested and plated onto a layer of Matrigel at a density of 3×10^5 cells/well in M199 medium containing 1% FBS and […], with the addition of F and R. Vascular endothelial growth factor (VEGF, 20 ng/mL) was used as a positive control. After 16 hours of culture, cells were stained with calcein acetoxymethyl ester (calcein-AM) and observed with an inverted fluorescent microscope. The number of tubular structures, junctions and meshes were analyzed by Image J with the Angiogenesis Analyzer plugin (n = 4-6 per group).
Background: Tetrazolium assays rely on reduction of a dye to a coloured formazan, in cell work by metabolically active cells.

Experiment [2] deals with neonatal rat cardiomyocytes. Kind of experiment: Cardiomyocyte viability (live/dead assay). The class given is cell-based. The conditions noted are these: 120 h, after 5 days in vitro culture, drugs in medium (20 µM), control cells 25 %. As to the method:
(§1) Cell isolation: Primary neonatal rat cardiomyocytes and fibroblasts were isolated from the hearts of 1-2 day old Sprague-Dawley rat pups as described previously with minor modifications. Briefly, the cardiac tissue was minced and digested with 80 units/mL collagenase II (Worthington) and 0.8 mg/mL pancreatin (Sigma) at 37° C. in a water bath. Neonatal calf serum (NCS) was applied to inactivate enzymatic activity in the digested cell mixture. The cell solution was filtered through 100 µm mesh and centrifuged at 2200 rpm for 3 minutes. The cell pellets were suspended in 1 mL NCS and further separated by Percoll density gradient centrifugation. […]
Cell culture and evaluation of drug effects in vitro: The drug effects on cardiomyocyte viability and proliferation were evaluated. Isolated cardiomyocytes were calculated and seeded on 0.1% gelatin-coated twenty-four well tissue culture plate with a density of 20, 000 cells/cm^2, and cultured at 37° C. in a humidified, 5% CO2 incubator overnight in DMEM/Medium 199 (4/1) containing 10% FBS, 1% NEAAs and 1% P/S. The next day, the culture medium was replaced by fresh medium containing 20 µM F, R or their combination. […] A live/dead kit (Invitrogen) was for cell viability assay, and images were taken using inverted microscope fluorescence microscopy (Zeiss Axio Observer Z1) to determine the cell numbers and the percentage of dead cells. […]

The test system of the next experiment is neonatal cardiomyocytes. Nature of the experiment: Cardiomyocyte proliferation (EdU assay). The conditions noted are these: drugs in medium. The class given is cell-based, rat. As to the method: Cell isolation: Primary neonatal rat cardiomyocytes and fibroblasts were isolated from the hearts of 1-2 day old Sprague-Dawley rat pups as described previously with minor modifications. Briefly, the cardiac tissue was minced and digested with 80 units/mL collagenase II (Worthington) and 0.8 mg/mL pancreatin (Sigma) at 37° C. in a water bath. Neonatal calf serum (NCS) was applied to inactivate enzymatic activity in the digested cell mixture. The cell solution was filtered through 100 µm mesh and centrifuged at 2200 rpm for 3 minutes. The cell pellets were suspended in 1 mL NCS and further separated by Percoll density gradient centrifugation. […] Cell culture and evaluation of drug effects in vitro: The drug effects on cardiomyocyte viability and proliferation were evaluated. Isolated cardiomyocytes were calculated and seeded on 0.1% gelatin-coated twenty-four well tissue culture plate with a density of 20, 000 cells/cm^2, and cultured at 37° C. in a humidified, 5% CO2 incubator overnight in DMEM/Medium 199 (4/1) containing 10% FBS, 1% NEAAs and 1% P/S. […] A live/dead kit (Invitrogen) was for cell viability assay, and images were taken using inverted microscope fluorescence microscopy (Zeiss Axio Observer Z1) to determine the cell numbers and the percentage of dead cells. […]

For the next experiment, the system named is cardiac fibroblasts. Kind of experiment: Cardiac fibroblast proliferation (MTS assay). The class given is cell-based, rat. The conditions noted are these: drugs in medium. The method, then:
Cell isolation: Primary neonatal rat cardiomyocytes and fibroblasts were isolated from the hearts of 1-2 day old Sprague-Dawley rat pups as described previously with minor modifications. Briefly, the cardiac tissue was minced and digested with 80 units/mL collagenase II (Worthington) and 0.8 mg/mL pancreatin (Sigma) at 37° C. in a water bath. Neonatal calf serum (NCS) was applied to inactivate enzymatic activity in the digested cell mixture. The cell solution was filtered through 100 µm mesh and centrifuged at 2200 rpm for 3 minutes. The cell pellets were suspended in 1 mL NCS and further separated by Percoll density gradient centrifugation. A two-layer density gradient was formed consisting of 40.5% Percoll (GE17-0891-01, Sigma) solution in the top layer and 58.5% Percoll solution in the bottom layer. The cell suspension was layered on top of the gradient and centrifuged at 3000 rpm at room temperature for 30 minutes. […] The drug effects on cardiac fibroblast proliferation and myo-differentiation were evaluated. Fibroblasts were seeded on twenty-four well tissue culture plate with a density of 5000 cells/cm^2 and cultured overnight in DMEM containing 10% FBS and 1% P/S. On the next day, the culture medium was replaced by the fresh medium containing F and R at the determined concentrations and combinations, and the medium was changed every other day. […]

In experiment [3] the test system is neonatal cardiac fibroblasts. Nature of the experiment: Cardiac fibroblast myo-differentiation (α-SMA / F-actin staining). The class given is cell-based, rat. The conditions noted are these: drugs in medium, day 5. As to the method:
as §1, with “centrifugation. A two-layer density gradient was formed consisting of 40.5% Percoll (GE17-0891-01, Sigma) solution in the top layer and 58.5% Percoll solution in the bottom layer.” for “centrifugation.”
The drug effects on cardiac fibroblast proliferation and myo-differentiation were evaluated. Fibroblasts were seeded on twenty-four well tissue culture plate with a density of 5000 cells/cm^2 and cultured overnight in DMEM containing 10% FBS and 1% P/S. On the next day, the culture medium was replaced by the fresh medium containing F and R at the determined concentrations and combinations, and the medium was changed every other day. […]
(§2) The effects of drugs released from FR/NPs and FR/NPs-µGel particles 12 were evaluated using the methods mentioned above. […]

In experiment [4] the test system is Human umbilical vein endothelial cells (HUVECs). Kind of experiment: Endothelial cell tubule network formation on Matrigel. The class given is cell-based. The conditions noted are these: drugs in medium, 16 hours. As to the method:
The drug effects on EC proliferation and network formation were evaluated. Human umbilical vein endothelial cells (HUVECs) were seeded on 0.1% gelatin-coated 24-well plates with a density of 5, 000 cells/cm^2 and cultured overnight in DMEM containing 10% FBS and 1% P/S. On the next day, the culture medium was replaced by the fresh medium containing F and R at the determined concentrations and combinations, and the medium was changed every other day. MTS cell proliferation assay was performed on day 1, 3 and 5. In addition, the ECs network formation was examined on growth factor reduced Matrigel according to the manufacturer’s instructions (cat# CB-40230C, Thermo Fisher Scientific). Briefly, 24-well plates were coated with Matrigel. ECs were digested and plated onto a layer of Matrigel at a density of 3×10^5 cells/well in M199 medium containing 1% FBS and 1% P/S, with the addition of F and R. Vascular endothelial growth factor (VEGF, 20 ng/mL) was used as a positive control. After 16 hours of culture, cells were stained with calcein acetoxymethyl ester (calcein-AM) and observed with an inverted fluorescent microscope. The number of tubular structures, junctions and meshes were analyzed by Image J with the Angiogenesis Analyzer plugin (n = 4-6 per group).
as §2

For the compound `C=C[C@@]1(C)CC(=O)[C@]2(O)[C@@]3(C)[C@@H](O)CCC(C)(C)[C@@H]3[C@H](O)[C@H](OC(C)=O)[C@@]2(C)O1` [F, Forskolin], the “optimal concentration to enhance EC proliferation” value in experiment [1] came to 20 µM. Also, the viability at 20 µM in experiment [2] came out at 80%.
Take `Cc1cccc(-c2n[nH]cc2-c2ccc3ncccc3n2)n1` [R, 2-(3-(6-Methylpyridine-2-yl)-1H-pyrazol-4-yl)-1,5-naphthyridine]: the “optimal concentration to enhance EC proliferation” value in experiment [1] is 20 µM. Moreover, the EC proliferation result in experiment [1] (drugs in medium) was “dose-dependent effects to enhance EC proliferation”. Moreover, in the experiment on neonatal cardiomyocytes, the “proliferation of neonatal cardiomyocytes, times as many cells as the control” value is “six”. In the experiment on cardiac fibroblasts, the fibroblast proliferation result is listed as “opposite inhibitory effects”. Also, the “myo-differentiation of cardiac fibroblasts” value in experiment [3] is reported as “could prevent myo-differentiation of cardiac fibroblasts”. The viability at 20 µM in experiment [2] worked out at 80%. Also, in experiment [4], the EC network formation result was “not with R alone”.
